US12681007B2, “High throughput method for constructing and screening compound library and reaction device” (ZH[…] (SHENZHEN) CO., LTD., priority 2019, dated 2026)

Tested on: A549 (lung cancer) cells
Assay: MTT screening of Erlotinib derivatives on A549 cells
Format: cell-based
Conditions: compound 10 μM, 24 hours, ratio of survival rate with derivative to survival rate with Erlotinib (lower = more active), unpurified in-situ reaction products
Protocol: Screening 840 Erlotinib derivatives by MTT method, operating steps: • (1) A549 (lung cancer) cells were adhered overnight: the logarithmic growth phase cells were digested and then counted, and were laid on 96 well plates overnight with 5000 cells per well. • (2) Adding drug: the compound concentration was diluted to 10 μM with complete culture solution, and the supernatant was discarded, and a volume of 100 μL per well was administrated and treated for 24 hours. • (3) Adding MTT: 20 μL MTT (5 mg/ml) was added to each well and cultured for 4 hours. • (4) Measuring the absorbance value: discarding the supernatant, 150 μL DMSO was added to each well, shaken for 10 minutes to make the crystals fully dissolved. The absorbance at 570 nm was measured by microplate reader.
The relative survival rate was calculated as the ratio of the survival rate of cells treated with Erlotinib derivatives to the survival rate of cells treated with positive compounds (Erlotinib), where lower relative survival rate means the activity of the compounds are better.

In order of rising Relative survival rate:
1. COCCOc1cc2ncnc(Nc3cccc(-c4cn(CCc5c[nH]c6cc(Cl)ccc56)nn4)c3)c2cc1OCCOC [Compound 90]  0.522
2. COCCOc1cc2ncnc(Nc3cccc(-c4cn(C(C)(Cc5ccccc5)C(=O)OC)nn4)c3)c2cc1OCCOC (centres unmarked) [Compound 24]  0.557
3. COCCOc1cc2ncnc(Nc3cccc(-c4cn(C5CCCc6ccccc65)nn4)c3)c2cc1OCCOC (centres unmarked) [Compound 89]  0.577
4. COCCOc1cc2ncnc(Nc3cccc(-c4cn(CCc5cccc(C(F)(F)F)c5)nn4)c3)c2cc1OCCOC [Compound 93]  0.621
5. COCCOc1cc2ncnc(Nc3cccc(-c4cn(CCc5ccc6ccccc6c5)nn4)c3)c2cc1OCCOC [Compound 97]  0.654
6. COCCOc1cc2ncnc(Nc3cccc(-c4cn(Cc5ccccc5S(C)(=O)=O)nn4)c3)c2cc1OCCOC [Compound 55]  0.814
7. COCCOc1cc2ncnc(Nc3cccc(-c4cn([C@@H](C)C(=O)OCc5ccccc5)nn4)c3)c2cc1OCCOC [Compound 96]  0.829
8. COCCOc1cc2ncnc(Nc3cccc(-c4cn(CCc5ccc(Cl)c(Cl)c5)nn4)c3)c2cc1OCCOC [Compound 87]  0.850
9. COCCOc1cc2ncnc(Nc3cccc(-c4cn(CC(O)c5cccc(Cl)c5)nn4)c3)c2cc1OCCOC (centres unmarked) [Compound 92]  0.854
10. COCCOc1cc2ncnc(Nc3cccc(-c4cn(CCc5cccc(F)c5)nn4)c3)c2cc1OCCOC [Compound 86]  0.861
11. COCCOc1cc2ncnc(Nc3cccc(-c4cn(C(C)(C)c5ccccc5)nn4)c3)c2cc1OCCOC [Compound 27]  0.862
12. COCCOc1cc2ncnc(Nc3cccc(-c4cn([C@H]5CCc6nc(N)sc6C5)nn4)c3)c2cc1OCCOC [Compound 22]  0.866
13. COCCOc1cc2ncnc(Nc3cccc(-c4cn(CCCOCc5ccccc5)nn4)c3)c2cc1OCCOC [Compound 85]  0.867
14. COCCOc1cc2ncnc(Nc3cccc(-c4cn([C@@H](Cc5ccccc5)C(=O)OC(C)(C)C)nn4)c3)c2cc1OCCOC [Compound 23]  0.874
15. COCCOc1cc2ncnc(Nc3cccc(-c4cn(Cc5cc(C)on5)nn4)c3)c2cc1OCCOC [Compound 54]  0.878
16. COCCOc1cc2ncnc(Nc3cccc(-c4cn(CC5=CCC(O)C=C5)nn4)c3)c2cc1OCCOC (centres unmarked) [Compound 25]  0.885
17. COCCOc1cc2ncnc(Nc3cccc(-c4cn([C@@H](Cc5ccccc5)C(=O)OC)nn4)c3)c2cc1OCCOC [Compound 94]  0.885
18. COCCOc1cc2ncnc(Nc3cccc(-c4cn(CCc5ccccn5)nn4)c3)c2cc1OCCOC [Compound 99]  0.888
19. COCCOc1cc2ncnc(Nc3cccc(-c4cn([C@H](Cc5ccc(O)cc5)C(=O)OC)nn4)c3)c2cc1OCCOC [Compound 88]  0.889
20. COCCOc1cc2ncnc(Nc3cccc(-c4cn(-c5cc(C)nn5-c5ccccc5)nn4)c3)c2cc1OCCOC [Compound 47]  0.893
21. COCCOc1cc2ncnc(Nc3cccc(-c4cn(CCc5cccc([N+](=O)[O-])c5)nn4)c3)c2cc1OCCOC [Compound 49]  0.913
22. COCCOc1cc2ncnc(Nc3cccc(-c4cn(Cc5c[nH]cn5)nn4)c3)c2cc1OCCOC [Compound 53]  0.928
23. CCOC(=O)[C@H](Cc1ccc(O)cc1)n1cc(-c2cccc(Nc3ncnc4cc(OCCOC)c(OCCOC)cc34)c2)nn1 [Compound 26]  0.942
24. COCCOc1cc2ncnc(Nc3cccc(-c4cn(Cc5cccc(C(=O)OC)c5)nn4)c3)c2cc1OCCOC [Compound 50]  0.951
25. COCCOc1cc2ncnc(Nc3cccc(-c4cn(Cc5ccsc5)nn4)c3)c2cc1OCCOC [Compound 57]  0.957
26. COCCOc1cc2ncnc(Nc3cccc(-c4cn(Cc5ccc(Cl)nc5)nn4)c3)c2cc1OCCOC [Compound 98]  0.959
27. CCOc1ccccc1Cn1cc(-c2cccc(Nc3ncnc4cc(OCCOC)c(OCCOC)cc34)c2)nn1 [Compound 48]  0.971
28. COCCOc1cc2ncnc(Nc3cccc(-c4cn(CC(O)c5cccc(O)c5)nn4)c3)c2cc1OCCOC (centres unmarked) [Compound 95]  0.971
29. COCCOc1cc2ncnc(Nc3cccc(-c4cn(C(C)(C)c5cc(F)cc(F)c5)nn4)c3)c2cc1OCCOC [Compound 56]  0.978
30. COCCOc1cc2ncnc(Nc3cccc(-c4cn(C[C@@H](O)c5ccccc5)nn4)c3)c2cc1OCCOC [Compound 84]  0.988
31. COCCOc1cc2ncnc(Nc3cccc(-c4cn([C@H](CO)C(=O)OCc5ccccc5)nn4)c3)c2cc1OCCOC [Compound 51]  0.989
32. COCCOc1cc2ncnc(Nc3cccc(-c4cn([C@H](C)c5nc6ccccc6[nH]5)nn4)c3)c2cc1OCCOC [Compound 52]  0.993
33. COCCOc1cc2ncnc(Nc3cccc(-c4cn(CCc5cccc(OC)c5)nn4)c3)c2cc1OCCOC [Compound 20]  0.993
34. COCCOc1cc2ncnc(Nc3cccc(-c4cn(-c5ccc(O)c(C(=O)O)c5)nn4)c3)c2cc1OCCOC [Compound 267]  1.129
35. COCCOc1cc2ncnc(Nc3cccc(-c4cn(-c5ccccc5)nn4)c3)c2cc1OCCOC [Compound 266]  1.130
36. COCCOc1cc2ncnc(Nc3cccc(-c4cn(-c5ccc(CC(=O)OC)cc5)nn4)c3)c2cc1OCCOC [Compound 270]  1.200
37. COCCOc1cc2ncnc(Nc3cccc(-c4cn(-c5ccc(Cc6ccccc6)cc5)nn4)c3)c2cc1OCCOC [Compound 269]  1.289
38. COCCOc1cc2ncnc(Nc3cccc(-c4cn(-c5ccc(C)cc5C(=O)O)nn4)c3)c2cc1OCCOC [Compound 268]  1.311
